Source: publication PMC8233901, “D-Amino Acid-Containing Lipopeptides Derived from the Lead Peptide BP100 with Activity against Plant Pathogens” (International Journal of Molecular Sciences, 2021)
Values joined by “and” are separate entries in the source; they are usually repeats but may differ in a detail not shown here. Equal entries are not always repeated. Where a SMILES comes first, the peptide text is derived from it. [ ]: non-standard residue; d: D form. The star is where a group is joined. Lauroyl = CCCCCCCCCCCC(=O)*; Butyryl = CCCC(=O)*

Assays:
tobacco leaves = assay: Effect of peptide infiltration on tobacco leaves (lesion size); type: in vivo; conditions: for Size of the lesion (mm) 50 µM: 100 µL infiltrated into mesophyll of tobacco leaves; for Size of the lesion (mm) 50 µM / Size of the lesion (mm) 150 µM / Size of the lesion (mm) 250 µM: ± confidence interval
Procedure: The lipopeptides were evaluated for their effect upon infiltration on tobacco leaves as described previously. Peptide solutions of 50, 150 and 250 μM were infiltrated (100 μL) into the mesophylls of fully expanded tobacco leaves. Infiltrations were carried out in a single leaf, and for each peptide and dose, at least three leaves randomly distributed in different plants were infiltrated. Control infiltrations with water (negative control) or melittin (positive control) at the same molar concentration were performed. The appearance of symptoms on the leaves was followed for 48 h after infiltration and measured as a lesion diameter.

horse erythrocytes = assay: Hemolytic activity (hemoglobin release from erythrocytes); type: cell-based; conditions: D-amino acid lipopeptides, TRIS buffer pH 7.2, 1 h, 37 °C, ± confidence interval (α = 0.05); for Hemolysis (%) 250 µM / Hemolysis (%) 375 µM / Hemolysis (%) 150 µM: relative to melittin; for Hemolysis (%) 50 µM: absorbance 540 nm, relative to melittin 100 µM
Procedure: The hemolytic activity of the compounds was evaluated by determining hemoglobin release from erythrocyte suspensions of horse blood (5% vol/vol) (Oxoid) as previously described. Blood was centrifuged at 6000 g for 5 min, washed three times with tris(hydroxymethyl)aminomethane (TRIS) buffer (10 mM TRIS, 150 mM NaCl, pH 7.2) and diluted 10 times. Compounds were solubilized in TRIS buffer at 750, 500, 300 and 100 μM and mixed with horse erythrocytes (1:1 v/v). The mixture was incubated under continuous shaking for 1 h at 37 °C. Then, the tubes were centrifuged at 3500 g for 10 min, 80 μL aliquots of the supernatant transferred to 100-well microplates (Bioscreen), diluted with 80 μL water, and the absorbance measured at 540 nm (Bioscreen). Complete hemolysis was obtained by the addition of melittin at 100 μM (Sigma-Aldrich Corporation, Madrid, Spain). The percentage of hemolysis (H) was calculated using the equation: H = 100 × [(Op−Ob)/(Om−Ob)], where Op is the density for a given compound concentration, Ob for the buffer, and Om for the melittin-positive control.

[1] = D-amino acid lipopeptides, lesion diameter, 48 h, at least three leaves
[2] = D-amino acid lipopeptides, 100 µL infiltrated into tobacco leaves, lesion diameter, 48 h, at least three leaves
[3] = D-amino acid lipopeptides, 250 µM, 100 µL infiltrated into tobacco leaves, lesion diameter, 48 h, at least three leaves
[4] = Table 2, 250 µM infiltrated into tobacco leaves

Compound	necrosis in infiltrated tobacco leaves (tobacco leaves; positive control, 250 µM) [mm]	Hemolysis (%) 250 µM (horse erythrocytes)	Size of the lesion (mm) 50 µM (tobacco leaves; [1]) [mm]	Size of the lesion (mm) 150 µM (tobacco leaves; [2]) [mm]	Size of the lesion (mm) 250 µM (tobacco leaves; [3]) [mm]	Size of the lesion (mm) 250 µM (tobacco leaves; [4]) [mm]	Hemolysis (%) 375 µM (horse erythrocytes) [%]	Hemolysis (%) 150 µM (horse erythrocytes) [%]	Hemolysis (%) 50 µM (horse erythrocytes) [%]
melittin [reference compound]	18	–	–	–	–	–	–	–	–
CCCCCC(=O)N[C@@H](CCCCN)C(=O)N[C@@H](CCCCN)C(=O)N[C@@H](CC(C)C)C(=O)N[C@H](Cc1ccccc1)C(=O)N[C@@H](CCCCN)C(=O)N[C@@H](CCCCN)C(=O)N[C@H](C(=O)N[C@@H](CC(C)C)C(=O)N[C@@H](CCCCN)C(=O)N[C@@H](Cc1ccc(O)cc1)C(=O)N[C@@H](CC(C)C)C(N)=O)[C@@H](C)CC [BP472, C5H11CO-KKLfKKILKYL-NH2]	–	78 ± 5%	2 ± 1	4 ± 1	4 ± 1	4 ± 1	–	–	–
CCCC(=O)NCCCC[C@H](NC(=O)[C@H](Cc1ccc(O)cc1)NC(=O)[C@H](CCCCN)NC(=O)[C@H](CC(C)C)NC(=O)[C@@H](NC(=O)[C@H](CCCCN)NC(=O)[C@H](CCCCN)NC(=O)[C@@H](Cc1ccccc1)NC(=O)[C@H](CC(C)C)NC(=O)[C@H](CCCCN)NC(=O)[C@H](CCCCN)NC(C)=O)[C@@H](C)CC)C(N)=O [BP496, Ac-KKLfKKILKYK(COC3H7)-NH2] (Ac-KKL[dF]KKILKYK(Butyryl)-NH2)	–	1 ± 1%	3 ± 0.5	4 ± 0.5	10 ± 3	10 ± 3	1 ± 0.5	–	–
CCCC(=O)NCCCC[C@H](NC(=O)[C@H](CC(C)C)NC(=O)[C@@H](NC(=O)[C@H](CCCCN)NC(=O)[C@H](CCCCN)NC(=O)[C@@H](Cc1ccccc1)NC(=O)[C@H](CC(C)C)NC(=O)[C@H](CCCCN)NC(=O)[C@H](CCCCN)NC(C)=O)[C@@H](C)CC)C(=O)N[C@@H](Cc1ccc(O)cc1)C(=O)N[C@@H](CC(C)C)C(N)=O [BP499, Ac-KKLfKKILK(COC3H7)YL-NH2]	–	11 ± 1%	6 ± 1	8 ± 2	8 ± 2	8 ± 2	–	–	–
CCCC(=O)NCCCC[C@H](NC(=O)[C@H](CCCCN)NC(C)=O)C(=O)N[C@@H](CC(C)C)C(=O)N[C@H](Cc1ccccc1)C(=O)N[C@@H](CCCCN)C(=O)N[C@@H](CCCCN)C(=O)N[C@H](C(=O)N[C@@H](CC(C)C)C(=O)N[C@@H](CCCCN)C(=O)N[C@@H](Cc1ccc(O)cc1)C(=O)N[C@@H](CC(C)C)C(N)=O)[C@@H](C)CC [BP486, Ac-KK(COC3H7)LfKKILKYL-NH2]	–	14 ± 5%	4 ± 1	8 ± 1	17 ± 2	17 ± 2	14 ± 2	–	–
CCCC(=O)NCCCC[C@H](NC(=O)[C@@H](Cc1ccccc1)NC(=O)[C@H](CC(C)C)NC(=O)[C@H](CCCCN)NC(=O)[C@H](CCCCN)NC(C)=O)C(=O)N[C@@H](CCCCN)C(=O)N[C@H](C(=O)N[C@@H](CC(C)C)C(=O)N[C@@H](CCCCN)C(=O)N[C@@H](Cc1ccc(O)cc1)C(=O)N[C@@H](CC(C)C)C(N)=O)[C@@H](C)CC [BP498, Ac-KKLfK(COC3H7)KILKYL-NH2]	–	21 ± 3%	4 ± 3	6 ± 2	6 ± 1	6 ± 1	–	–	–
CCCCCCCCCCCC(=O)NCCCC[C@H](NC(=O)[C@H](CC(C)C)NC(=O)[C@@H](NC(=O)[C@H](CCCCN)NC(=O)[C@H](CCCCN)NC(=O)[C@@H](Cc1ccccc1)NC(=O)[C@H](CC(C)C)NC(=O)[C@H](CCCCN)NC(=O)[C@H](CCCCN)NC(C)=O)[C@@H](C)CC)C(=O)N[C@@H](Cc1ccc(O)cc1)C(=O)N[C@@H](CC(C)C)C(N)=O [BP497, Ac-KKLfKKILK(COC11H23)YL-NH2]	–	100 ± 2%	5 ± 1	18 ± 1	18 ± 0	18 ± 0	100 ± 4	100 ± 2	–
CCCC(=O)NCCCC[C@H](NC(=O)[C@H](CCCCN)NC(=O)[C@H](CC(C)C)NC(=O)[C@@H](NC(=O)[C@H](CCCCN)NC(=O)[C@H](CCCCN)NC(=O)[C@@H](Cc1ccccc1)NC(=O)[C@H](CC(C)C)NC(=O)[C@H](CCCCN)NC(=O)[C@H](CCCCN)NC(C)=O)[C@@H](C)CC)C(=O)N[C@@H](CC(C)C)C(N)=O [BP475, Ac-KKLfKKILKK(COC3H7)L-NH2] (Ac-KKL[dF]KKILKK(Butyryl)L-NH2)	–	0 ± 0% and 0%	5 ± 1	7 ± 2	10 ± 1	10 ± 1	0 ± 0	0 ± 0	0 ± 0
CCCCCCCCCCCC(=O)NCCCC[C@H](NC(=O)[C@@H](NC(=O)[C@H](CCCCN)NC(=O)[C@H](CCCCN)NC(=O)[C@@H](Cc1ccccc1)NC(=O)[C@H](CC(C)C)NC(=O)[C@H](CCCCN)NC(=O)[C@H](CCCCN)NC(C)=O)[C@@H](C)CC)C(=O)N[C@@H](CCCCN)C(=O)N[C@@H](Cc1ccc(O)cc1)C(=O)N[C@@H](CC(C)C)C(N)=O [BP490, Ac-KKLfKKIK(COC11H23)KYL-NH2] (Ac-KKL[dF]KKIK(Lauroyl)KYL-NH2)	–	100 ± 6%	4 ± 0.7	6 ± 2	11 ± 3	11 ±3	–	–	100 ± 3
CCCC(=O)N[C@@H](CCCCN)C(=O)N[C@@H](CCCCN)C(=O)N[C@@H](CC(C)C)C(=O)N[C@H](Cc1ccccc1)C(=O)N[C@@H](CCCCN)C(=O)N[C@@H](CCCCN)C(=O)N[C@H](C(=O)N[C@@H](CC(C)C)C(=O)N[C@@H](CCCCN)C(=O)N[C@@H](Cc1ccc(O)cc1)C(=O)N[C@@H](CC(C)C)C(N)=O)[C@@H](C)CC [BP485, C3H7CO-KKLfKKILKYL-NH2]	–	24 ± 9%	4 ± 0.7	7 ± 0.7	12 ± 1	12 ± 1	–	–	–
CCCCCCCCCCCC(=O)NCCCC[C@H](NC(=O)[C@H](CCCCN)NC(=O)[C@H](CCCCN)NC(C)=O)C(=O)N[C@H](Cc1ccccc1)C(=O)N[C@@H](CCCCN)C(=O)N[C@@H](CCCCN)C(=O)N[C@H](C(=O)N[C@@H](CC(C)C)C(=O)N[C@@H](CCCCN)C(=O)N[C@@H](Cc1ccc(O)cc1)C(=O)N[C@@H](CC(C)C)C(N)=O)[C@@H](C)CC [BP500, Ac-KKK(COC11H23)fKKILKYL-NH2] (Ac-KKK(Lauroyl)[dF]KKILKYL-NH2)	–	71 ± 8%	3 ± 2	6 ± 2	9 ± 3	9 ± 3	–	71 ± 2	–
CCCCCCCCCCCC(=O)NCCCC[C@@H](NC(=O)[C@H](CC(C)C)NC(=O)[C@H](CCCCN)NC(=O)[C@H](CCCCN)NC(C)=O)C(=O)N[C@@H](CCCCN)C(=O)N[C@@H](CCCCN)C(=O)N[C@H](C(=O)N[C@@H](CC(C)C)C(=O)N[C@@H](CCCCN)C(=O)N[C@@H](Cc1ccc(O)cc1)C(=O)N[C@@H](CC(C)C)C(N)=O)[C@@H](C)CC [BP488, Ac-KKLk(COC11H23)KKILKYL-NH2]	–	86 ± 14%	4 ± 0.7	5 ± 1	13 ± 5	13 ± 5	–	–	–
